This is an account of results in patent US8222404B2, “[1,2,4]Thiadiazin-3-yl acetic acid compound and methods of making the acetic acid compound” (Anadys Pharmaceuticals, Inc., priority 2008, dated 2012).

pEC50: −log10 of the molar value.

The experiment has as its system HCV Huh-luc/neo-ET replicon cells. The experiment can be described thus: Luciferase-Based HCV Replicon Assay (EC50 (1b)). The class given is cell-based. The following applies: Hepatitis C virus, 72 hours exposure, luciferase activity. The protocol: Luciferase-Based HCV Replicon Assay Protocol (EC50 (1b))
The cell culture component of the assay was performed essentially as described by Bartenschlager et al., Hepatology 2002, 35, 694-703, wherein exponentially growing HCV Huh-luc/neo-ET replicon cells were seeded at 6×10^3 cells/well in 96 well assay plate. 24 hours later the cells were treated with various concentrations of compound in triplicate. After 72 hours exposure to the compound, the luciferase activity in the wells was determined using Bright-Glo reagent (Promega, Madison, Wis.) with a luminometer (Wallac 1420 Multilabel HTS Counter Victor 2). The background control was replicon cells treated with 100 nM BILN-2061, an inhibitor of the HCV protease. % Inhibition was determined for each compound concentration in relation to the negative (no compound) control to calculate the EC50 (1b).
For orientation: Replicon systems follow genome replication, usually without infectious particles.
A word on the pEC50: it is the EC50 on a negative log10 scale, so that one unit is a factor of ten. Molecule `COc1cc(CN2C(=O)C(C3=NS(=O)(=O)c4c(CNS(C)(=O)=O)csc4N3)=C(O)[C@@H]3[C@H]4CC[C@H](C4)[C@@H]32)ccc1F` [Example 38, N-{3-[(1R,2S,7R,8S)-3-(4-Fluoro-3-methoxy-benzyl)-6-hydroxy-4-oxo-3-aza-tricyclo[6.2.1.0^2,7]undec-5-en-5-yl]-1,1-dioxo-1,4-dihydro-1λ^6-thieno[2,3-e][1,2,4]thiadiazin-7-ylmethyl}-methanesulfonamide] gave a pEC50 of 7.70 to 8.30. As for `CS(=O)(=O)NCc1csc2c1S(=O)(=O)N=C(C1=C(O)C3C4CCC(O4)C3N(Cc3ccsc3)C1=O)N2` (racemic) [Example 61, (rac-di-exo)-N-[3-(6-Hydroxy-4-oxo-3-thiophen-3-ylmethyl-11-oxa-3-aza-tricyclo[6.2.1.0^2,7]undec-5-en-5-yl)-1,1-dioxo-1,4-dihydro-1λ^6-thieno[2,3-e][1,2,4]thiadiazin-7-ylmethyl]-methanesulfonamide], the pEC50 is 7.00 to 7.70. With `CS(=O)(=O)NCc1csc2c1S(=O)(=O)N=C(C1=C(O)[C@@H]3C4CCC(CC4)[C@@H]3N(Cc3cc(F)c(F)c(F)c3)C1=O)N2` [Example 70, N-{3-[(2S,7R)-6-Hydroxy-4-oxo-3-(3,4,5-trifluoro-benzyl)-3-aza-tricyclo[6.2.2.0^2,7]dodec-5-en-5-yl]-1,1-dioxo-1,4-dihydro-1λ^6-thieno[2,3-e][1,2,4]thiadiazin-7-ylmethyl}-methanesulfonamide], the pEC50 is ≥ 8.30. To `CS(=O)(=O)NCc1ccc2c(c1)S(=O)(=O)N=C(C1=C(O)[C@@H]3[C@H]4CC[C@H](C4)[C@@H]3N(Cc3ccc(F)cc3)C1=O)N2` [Example 3, N-{3-[(1R,2S,7R,8S)-3-(4-Fluoro-benzyl)-6-hydroxy-4-oxo-3-aza-tricyclo[6.2.1.0^2,7]undec-5-en-5-yl]-1,1-dioxo-1,4-dihydro-1λ^6-benzo[1,2,4]thiadiazin-7-ylmethyl}-methanesulfonamide] belongs 6.00 to 7.00; to `COc1ccc(CN2C(=O)C(C3=NS(=O)(=O)c4c(CNS(C)(=O)=O)csc4N3)=C(O)[C@@H]3C4CCC(CC4)[C@@H]32)c(OC)c1` [Example 74, N-{3-[(2S,7R)-3-(2,4-Dimethoxy-benzyl)-6-hydroxy-4-oxo-3-aza-tricyclo[6.2.2.0^2,7]dodec-5-en-5-yl]-1,1-dioxo-1,4-dihydro-1λ^6-thieno[2,3-e][1,2,4]thiadiazin-7-ylmethyl}-methanesulfonamide], < 6.00; to `CS(=O)(=O)NCc1csc2c1S(=O)(=O)N=C(C1=C(O)C3C4CCC(CC4)C3N(CCC3CC3)C1=O)N2` (centres unmarked) [Example 108, N-{3-[3-(2-Cyclopropyl-ethyl)-6-hydroxy-4-oxo-3-aza-tricyclo[6.2.2.0^2,7]dodec-5-en-5-yl]-1,1-dioxo-1,4-dihydro-1λ^6-thieno[2,3-e][1,2,4]thiadiazin-7-ylmethyl}-methanesulfonamide], 7.70 to 8.30. The value for `COc1ccc(CN2C(=O)C(C3=NS(=O)(=O)c4c(CNS(C)(=O)=O)csc4N3)=C(O)C3C4C=CC(C4)C32)c(OC)c1` (racemic) [Example 76, (rac-di-exo)-N-{3-[3-(2,4-Dimethoxy-benzyl)-6-hydroxy-4-oxo-3-aza-tricyclo[6.2.1.0^2,7]undeca-5,9-dien-5-yl]-1,1-dioxo-1,4-dihydro-1λ^6-thieno[2,3-e][1,2,4]thiadiazin-7-ylmethyl}-methanesulfonamide] was < 6.00; that for `CC(C)(C)CCN1C(=O)C(C2=NS(=O)(=O)c3c(CNS(C)(=O)=O)csc3N2)=C(O)C2CCCCC21` (racemic) [Example 133, (rac-cis)-N-{3-[1-(3,3-Dimethyl-butyl)-4-hydroxy-2-oxo-1,2,4a,5,6,7,8,8a-octahydro-quinolin-3-yl]-1,1-dioxo-1,4-dihydro-1λ^6-thieno[2,3-e][1,2,4]thiadiazin-7-ylmethyl}-methanesulfonamide] was 7.00 to 7.70; that for `CC(C)(C)CCN1C(=O)C(C2=NS(=O)(=O)c3c(CNS(C)(=O)=O)csc3N2)=C(O)[C@@H]2[C@H]3CC[C@H](C3)[C@@H]21` [Example 67, N-{3-[(1R,2S,7R,8S)-3-(3,3-Dimethyl-butyl)-6-hydroxy-4-oxo-3-aza-tricyclo[6.2.1.0^2,7]undec-5-en-5-yl]-1,1-dioxo-1,4-dihydro-1λ^6-thieno[2,3-e][1,2,4]thiadiazin-7-ylmethyl}-methanesulfonamide] was 7.70 to 8.30. To `CS(=O)(=O)NCc1csc2c1S(=O)(=O)N=C(C1=C(O)[C@@H]3[C@@H]4CC[C@@H](C4)[C@@H]3N(Cc3ccccc3)C1=O)N2` [Example 39, N-[3-((1S,2S,7R,8R)-3-Benzyl-6-hydroxy-4-oxo-3-aza-tricyclo[6.2.1.0^2,7]undec-5-en-5-yl)-1,1-dioxo-1,4-dihydro-1λ^6-thieno[2,3-e][1,2,4]thiadiazin-7-ylmethyl]-methanesulfonamide] belongs 7.70 to 8.30. In the case of `COc1ccc(CN2C(=O)C(C3=NS(=O)(=O)c4c(CNS(C)(=O)=O)csc4N3)=C(O)C3CCCCCC32)c(OC)c1` (racemic) [Example 79, (rac-cis)-N-{3-[1-(2,4-Dimethoxy-benzyl)-4-hydroxy-2-oxo-2,4a,5,6,7,8,9,9a-octahydro-1H-cyclohepta[b]pyridin-3-yl]-1,1-dioxo-1,4-dihydro-1λ^6-thieno[2,3-e][1,2,4]thiadiazin-7-ylmethyl}-methanesulfonamide], the negative logarithm of the EC50 (pEC50) was < 6.00.

For the molecule `CS(=O)(=O)NCc1csc2c1S(=O)(=O)N=C(C1=C(O)C3CCCCC3N(Cc3ccc(F)cc3F)C1=O)N2` (racemic) [Example 118, (rac-cis)-N-{3-[1-(2,4-Difluoro-benzyl)-4-hydroxy-2-oxo-1,2,4a,5,6,7,8,8a-octahydro-quinolin-3-yl]-1,1-dioxo-1,4-dihydro-1λ^6-thieno[2,3-e][1,2,4]thiadiazin-7-ylmethyl}-methanesulfonamide], the pEC50 is 6.00 to 7.00. As to `CC(C)CCN1C(=O)C(C2=NS(=O)(=O)c3c(CNS(C)(=O)=O)csc3N2)=C(O)[C@@H]2[C@@H]3CC[C@@H](C3)[C@@H]21` [Example 69, N-{3-[(1S,2S,7R,8R)-6-Hydroxy-3-(3-methyl-butyl)-4-oxo-3-aza-tricyclo[6.2.1.0^2,7]undec-5-en-5-yl]-1,1-dioxo-1,4-dihydro-1λ^6-thieno[2,3-e][1,2,4]thiadiazin-7-ylmethyl}-methanesulfonamide], the pEC50 is 7.00 to 7.70. For `CS(=O)(=O)NCc1csc2c1S(=O)(=O)N=C(C1=C(O)[C@@H]3[C@H]4CC[C@H](C4)[C@@H]3N(Cc3ccccc3)C1=O)N2` [Example 50, N-[3-((1R,2S,7R,8S)-3-Benzyl-6-hydroxy-4-oxo-3-aza-tricyclo[6.2.1.0^2,7]undec-5-en-5-yl)-1,1-dioxo-1,4-dihydro-1λ^6-thieno[2,3-e][1,2,4]thiadiazin-7-ylmethyl]-methanesulfonamide], the pEC50 is ≥ 8.30. The value for `CS(=O)(=O)NCc1csc2c1S(=O)(=O)N=C(C1=C(O)[C@@H]3CCC[C@@H]3N(CC3CCCCC3)C1=O)N2` [Example 103, (4aR,7aS)-N-[3-(1-Cyclohexylmethyl-4-hydroxy-2-oxo-2,4a,5,6,7,7a-hexahydro-1H-[1]pyrindin-3-yl)-1,1-dioxo-1,4-dihydro-1λ^6-thieno[2,3-e][1,2,4]thiadiazin-7-ylmethyl]-methanesulfonamide] was 7.00 to 7.70; that for `O=C1C(C2=NS(=O)(=O)c3c(CNS(=O)(=O)C4CC4)csc3N2)=C(O)[C@@H]2[C@H]3CC[C@H](C3)[C@@H]2N1Cc1ccc(F)cc1` [Example 33, Cyclopropanesulfonic acid {3-[(1R,2S,7R,8S)-3-(4-fluoro-benzyl)-6-hydroxy-4-oxo-3-aza-tricyclo[6.2.1.0^2,7]undec-5-en-5-yl]-1,1-dioxo-1,4-dihydro-1λ^6-thieno[2,3-e][1,2,4]thiadiazin-7-ylmethyl}-amide] was 7.70 to 8.30. For the molecule `CS(=O)(=O)NCc1csc2c1S(=O)(=O)N=C(C1=C(O)[C@@H]3[C@@H]4CC[C@@H](C4)[C@@H]3N(Cc3ccc(F)cc3Cl)C1=O)N2` [Example 42, N-{3-[(1S,2S,7R,8R)-3-(2-Chloro-4-fluoro-benzyl)-6-hydroxy-4-oxo-3-aza-tricyclo[6.2.1.0^2,7]undec-5-en-5-yl]-1,1-dioxo-1,4-dihydro-1λ^6-thieno[2,3-e][1,2,4]thiadiazin-7-ylmethyl}-methanesulfonamide], the pEC50 is 6.00 to 7.00. `CC(C)CCN1C(=O)C(C2=NS(=O)(=O)c3c(CNS(C)(=O)=O)csc3N2)=C(O)[C@@H]2CCC[C@@H]21` [Example 128, (4aR,7aS)-N-{3-[4-Hydroxy-1-(3-methyl-butyl)-2-oxo-2,4a,5,6,7,7a-hexahydro-1H-[1]pyrindin-3-yl]-1,1-dioxo-1,4-dihydro-1λ^6-thieno[2,3-e][1,2,4]thiadiazin-7-ylmethyl}-methanesulfonamide]: the negative logarithm of the EC50 (pEC50) was 7.00 to 7.70. In the case of `COc1ccc(CN2C(=O)C(C3=NS(=O)(=O)c4c(CNS(C)(=O)=O)csc4N3)=C(O)[C@@H]3CCC[C@@H]32)c(OC)c1` [Example 77, (4aR,7aS)-N-{3-[1-(2,4-Dimethoxy-benzyl)-4-hydroxy-2-oxo-2,4a,5,6,7,7a-hexahydro-1H-[1]pyrindin-3-yl]-1,1-dioxo-1,4-dihydro-1λ^6-thieno[2,3-e][1,2,4]thiadiazin-7-ylmethyl}-methanesulfonamide], the pEC50 was < 6.00. To `CS(=O)(=O)NCc1csc2c1S(=O)(=O)N=C(C1=C(O)C(Cc3ccccc3)CN(Cc3ccc(F)cc3)C1=O)N2` (racemic) [Example 12, rac-N-{3-[5-Benzyl-1-(4-fluoro-benzyl)-4-hydroxy-2-oxo-1,2,5,6-tetrahydro-pyridin-3-yl]-1,1-dioxo-1,4-dihydro-1λ^6-thieno[2,3-e][1,2,4]thiadiazin-7-ylmethyl}-methanesulfonamide] belongs < 6.00.
